From ChEMBL document CHEMBL3991601, “The target landscape of clinical kinase drugs” (Science, 2017)
The source made the active and inactive calls. For most assays here, no stated cut-off is given here; in the data, actives have a measured Kd and inactives only a lower limit.

Target: Receptor-interacting serine/threonine-protein kinase 2 (Homo sapiens, UniProt O43353)
Sequence (O43353 whole entry): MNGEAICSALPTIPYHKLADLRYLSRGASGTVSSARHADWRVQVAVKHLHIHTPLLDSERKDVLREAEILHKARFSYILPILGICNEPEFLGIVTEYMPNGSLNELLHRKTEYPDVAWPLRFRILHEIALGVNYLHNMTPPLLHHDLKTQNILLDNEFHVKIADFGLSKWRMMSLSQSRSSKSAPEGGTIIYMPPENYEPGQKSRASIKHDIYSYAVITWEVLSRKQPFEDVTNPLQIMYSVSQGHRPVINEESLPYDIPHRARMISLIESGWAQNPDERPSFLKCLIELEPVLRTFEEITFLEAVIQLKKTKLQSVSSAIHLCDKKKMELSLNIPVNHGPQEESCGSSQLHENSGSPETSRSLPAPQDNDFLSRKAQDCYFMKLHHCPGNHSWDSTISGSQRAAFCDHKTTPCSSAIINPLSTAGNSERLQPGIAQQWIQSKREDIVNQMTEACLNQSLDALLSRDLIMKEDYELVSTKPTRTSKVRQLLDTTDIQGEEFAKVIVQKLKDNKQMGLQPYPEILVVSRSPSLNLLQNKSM

SMILES	Kd
CNC(=O)CN1CCC(Oc2cc3c(Nc4cccc(Cl)c4F)ncnc3cc2OC)CC1 [SAPITINIB]	0.751 µM (active)
CN1CCC(CNc2ccc3ncc(-c4cccc(OC(F)(F)F)c4)n3n2)CC1 [SGI-1776]	> 30 µM (inactive)
C[C@@H]1CN(Cc2ccc(F)cc2)[C@@H](C)CN1C(=O)c1cc2c(C(=O)C(=O)N(C)C)cn(C)c2cc1Cl [TALMAPIMOD]	> 30 µM (inactive)
CN1CCC(COc2cnc(-c3cccc(Cn4nc(-c5cccc(C#N)c5)ccc4=O)c3)nc2)CC1 [TEPOTINIB]	> 30 µM (inactive)

Target: Tyrosine-protein kinase HCK (Homo sapiens, UniProt P08631)
Sequence (P08631 whole entry): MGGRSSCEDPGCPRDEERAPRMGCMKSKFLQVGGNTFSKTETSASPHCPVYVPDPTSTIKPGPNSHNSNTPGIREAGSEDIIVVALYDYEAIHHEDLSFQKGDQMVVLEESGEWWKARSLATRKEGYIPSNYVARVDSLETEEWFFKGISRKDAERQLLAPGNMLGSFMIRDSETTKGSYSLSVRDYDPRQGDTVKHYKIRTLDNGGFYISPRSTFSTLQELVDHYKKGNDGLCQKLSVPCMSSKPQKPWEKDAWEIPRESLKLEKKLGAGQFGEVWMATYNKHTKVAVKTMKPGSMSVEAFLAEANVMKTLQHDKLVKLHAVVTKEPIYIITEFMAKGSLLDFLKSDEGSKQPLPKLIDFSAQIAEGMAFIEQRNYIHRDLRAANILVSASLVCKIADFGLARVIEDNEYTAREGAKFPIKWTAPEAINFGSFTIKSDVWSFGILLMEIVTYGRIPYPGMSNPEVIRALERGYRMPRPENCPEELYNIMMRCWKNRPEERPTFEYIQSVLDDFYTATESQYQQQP

SMILES	Kd
CNC(=O)CN1CCC(Oc2cc3c(Nc4cccc(Cl)c4F)ncnc3cc2OC)CC1 [SAPITINIB]	> 30 µM (inactive)
CN1CCC(CNc2ccc3ncc(-c4cccc(OC(F)(F)F)c4)n3n2)CC1 [SGI-1776]	> 30 µM (inactive)
C[C@@H]1CN(Cc2ccc(F)cc2)[C@@H](C)CN1C(=O)c1cc2c(C(=O)C(=O)N(C)C)cn(C)c2cc1Cl [TALMAPIMOD]	> 30 µM (inactive)
CN1CCC(COc2cnc(-c3cccc(Cn4nc(-c5cccc(C#N)c5)ccc4=O)c3)nc2)CC1 [TEPOTINIB]	> 30 µM (inactive)

Target: T1, Mitogen-activated protein kinase kinase kinase kinase 2 (Homo sapiens, UniProt Q12851)
T1 sequence (Q12851 whole entry): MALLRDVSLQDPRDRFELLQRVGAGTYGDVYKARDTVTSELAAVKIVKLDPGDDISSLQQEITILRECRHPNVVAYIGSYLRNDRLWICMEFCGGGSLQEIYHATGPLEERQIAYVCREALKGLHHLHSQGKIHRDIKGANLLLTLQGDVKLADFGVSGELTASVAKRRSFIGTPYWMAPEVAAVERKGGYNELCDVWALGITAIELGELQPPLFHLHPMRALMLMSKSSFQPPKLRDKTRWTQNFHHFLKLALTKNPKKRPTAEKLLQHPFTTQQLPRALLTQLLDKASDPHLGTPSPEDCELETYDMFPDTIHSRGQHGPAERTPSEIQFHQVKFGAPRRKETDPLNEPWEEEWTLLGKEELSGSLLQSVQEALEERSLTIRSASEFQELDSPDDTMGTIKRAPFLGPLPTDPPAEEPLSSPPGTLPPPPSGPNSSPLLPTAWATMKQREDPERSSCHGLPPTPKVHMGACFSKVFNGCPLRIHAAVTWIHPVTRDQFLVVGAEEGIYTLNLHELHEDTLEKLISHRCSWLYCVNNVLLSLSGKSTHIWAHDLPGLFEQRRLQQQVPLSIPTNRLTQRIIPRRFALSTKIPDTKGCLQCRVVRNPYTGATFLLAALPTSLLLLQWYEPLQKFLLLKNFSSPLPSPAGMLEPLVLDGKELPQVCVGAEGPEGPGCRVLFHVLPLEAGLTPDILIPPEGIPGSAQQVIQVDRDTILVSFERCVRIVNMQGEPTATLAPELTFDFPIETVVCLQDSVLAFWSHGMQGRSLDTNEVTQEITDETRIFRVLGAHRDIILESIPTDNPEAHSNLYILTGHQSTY

SMILES	Kd
CNC(=O)CN1CCC(Oc2cc3c(Nc4cccc(Cl)c4F)ncnc3cc2OC)CC1 [SAPITINIB]	> 30 µM (inactive)
CN1CCC(CNc2ccc3ncc(-c4cccc(OC(F)(F)F)c4)n3n2)CC1 [SGI-1776]	> 30 µM (inactive)
C[C@@H]1CN(Cc2ccc(F)cc2)[C@@H](C)CN1C(=O)c1cc2c(C(=O)C(=O)N(C)C)cn(C)c2cc1Cl [TALMAPIMOD]	> 30 µM (inactive)
CN1CCC(COc2cnc(-c3cccc(Cn4nc(-c5cccc(C#N)c5)ccc4=O)c3)nc2)CC1 [TEPOTINIB]	> 30 µM (inactive)

Target: Protein kinase C delta type (Homo sapiens, UniProt Q05655)
Sequence (Q05655 whole entry): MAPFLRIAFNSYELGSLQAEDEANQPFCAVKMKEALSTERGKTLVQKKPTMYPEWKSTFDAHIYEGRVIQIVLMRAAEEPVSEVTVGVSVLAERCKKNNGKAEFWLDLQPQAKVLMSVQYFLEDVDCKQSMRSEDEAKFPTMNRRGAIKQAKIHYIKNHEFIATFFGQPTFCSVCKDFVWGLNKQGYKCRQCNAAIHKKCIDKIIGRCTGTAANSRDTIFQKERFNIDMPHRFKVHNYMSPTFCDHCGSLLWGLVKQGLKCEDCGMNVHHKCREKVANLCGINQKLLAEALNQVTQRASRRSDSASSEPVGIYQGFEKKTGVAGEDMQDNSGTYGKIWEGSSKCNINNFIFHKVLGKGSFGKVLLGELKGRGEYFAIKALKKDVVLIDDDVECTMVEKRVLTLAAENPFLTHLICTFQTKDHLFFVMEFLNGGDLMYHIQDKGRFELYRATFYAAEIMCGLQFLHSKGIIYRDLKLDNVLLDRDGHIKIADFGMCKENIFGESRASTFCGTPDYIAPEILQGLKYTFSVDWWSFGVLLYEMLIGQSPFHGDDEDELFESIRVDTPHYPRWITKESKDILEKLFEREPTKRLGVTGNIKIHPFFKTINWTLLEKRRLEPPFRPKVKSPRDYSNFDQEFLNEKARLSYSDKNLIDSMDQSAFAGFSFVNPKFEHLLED

SMILES	Kd
CNC(=O)CN1CCC(Oc2cc3c(Nc4cccc(Cl)c4F)ncnc3cc2OC)CC1 [SAPITINIB]	> 30 µM (inactive)
CN1CCC(CNc2ccc3ncc(-c4cccc(OC(F)(F)F)c4)n3n2)CC1 [SGI-1776]	> 30 µM (inactive)
C[C@@H]1CN(Cc2ccc(F)cc2)[C@@H](C)CN1C(=O)c1cc2c(C(=O)C(=O)N(C)C)cn(C)c2cc1Cl [TALMAPIMOD]	> 30 µM (inactive)
CN1CCC(COc2cnc(-c3cccc(Cn4nc(-c5cccc(C#N)c5)ccc4=O)c3)nc2)CC1 [TEPOTINIB]	> 30 µM (inactive)

Target: T2, Serine/threonine-protein kinase Nek2 (Homo sapiens, UniProt P51955)
T2 sequence (P51955 whole entry): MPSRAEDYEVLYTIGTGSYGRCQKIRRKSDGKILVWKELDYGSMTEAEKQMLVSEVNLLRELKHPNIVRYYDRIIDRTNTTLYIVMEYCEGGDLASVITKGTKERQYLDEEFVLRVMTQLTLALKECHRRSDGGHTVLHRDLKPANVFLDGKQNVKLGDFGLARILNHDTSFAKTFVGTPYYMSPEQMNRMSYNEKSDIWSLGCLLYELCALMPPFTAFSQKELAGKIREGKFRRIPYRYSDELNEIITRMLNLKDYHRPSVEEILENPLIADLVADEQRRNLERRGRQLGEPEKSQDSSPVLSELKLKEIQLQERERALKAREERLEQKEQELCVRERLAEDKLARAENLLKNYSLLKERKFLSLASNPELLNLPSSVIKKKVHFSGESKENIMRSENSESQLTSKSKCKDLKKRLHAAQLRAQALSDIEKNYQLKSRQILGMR

SMILES	Kd
CNC(=O)CN1CCC(Oc2cc3c(Nc4cccc(Cl)c4F)ncnc3cc2OC)CC1 [SAPITINIB]	> 30 µM (inactive)
CN1CCC(CNc2ccc3ncc(-c4cccc(OC(F)(F)F)c4)n3n2)CC1 [SGI-1776]	> 30 µM (inactive)
C[C@@H]1CN(Cc2ccc(F)cc2)[C@@H](C)CN1C(=O)c1cc2c(C(=O)C(=O)N(C)C)cn(C)c2cc1Cl [TALMAPIMOD]	> 30 µM (inactive)
CN1CCC(COc2cnc(-c3cccc(Cn4nc(-c5cccc(C#N)c5)ccc4=O)c3)nc2)CC1 [TEPOTINIB]	> 30 µM (inactive)

Target: Cyclin-dependent kinase 3 (Homo sapiens, UniProt Q00526)
Sequence (Q00526 whole entry): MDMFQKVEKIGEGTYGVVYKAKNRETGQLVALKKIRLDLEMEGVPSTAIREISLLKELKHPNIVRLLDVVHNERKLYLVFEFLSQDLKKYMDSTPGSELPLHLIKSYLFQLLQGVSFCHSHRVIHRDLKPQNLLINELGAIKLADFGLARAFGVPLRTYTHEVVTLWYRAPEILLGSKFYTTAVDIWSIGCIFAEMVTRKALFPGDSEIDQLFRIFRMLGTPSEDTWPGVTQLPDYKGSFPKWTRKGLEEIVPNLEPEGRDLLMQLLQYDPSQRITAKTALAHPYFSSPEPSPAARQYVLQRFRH

SMILES	Kd
CNC(=O)CN1CCC(Oc2cc3c(Nc4cccc(Cl)c4F)ncnc3cc2OC)CC1 [SAPITINIB]	> 30 µM (inactive)
CN1CCC(CNc2ccc3ncc(-c4cccc(OC(F)(F)F)c4)n3n2)CC1 [SGI-1776]	> 30 µM (inactive)
C[C@@H]1CN(Cc2ccc(F)cc2)[C@@H](C)CN1C(=O)c1cc2c(C(=O)C(=O)N(C)C)cn(C)c2cc1Cl [TALMAPIMOD]	> 30 µM (inactive)
CN1CCC(COc2cnc(-c3cccc(Cn4nc(-c5cccc(C#N)c5)ccc4=O)c3)nc2)CC1 [TEPOTINIB]	> 30 µM (inactive)

Target: Midasin (Homo sapiens, UniProt Q9NU22)

SMILES	Kd
CNC(=O)CN1CCC(Oc2cc3c(Nc4cccc(Cl)c4F)ncnc3cc2OC)CC1 [SAPITINIB]	> 30 µM (inactive)
CN1CCC(CNc2ccc3ncc(-c4cccc(OC(F)(F)F)c4)n3n2)CC1 [SGI-1776]	> 30 µM (inactive)
C[C@@H]1CN(Cc2ccc(F)cc2)[C@@H](C)CN1C(=O)c1cc2c(C(=O)C(=O)N(C)C)cn(C)c2cc1Cl [TALMAPIMOD]	> 30 µM (inactive)
CN1CCC(COc2cnc(-c3cccc(Cn4nc(-c5cccc(C#N)c5)ccc4=O)c3)nc2)CC1 [TEPOTINIB]	> 30 µM (inactive)

Target: Mitogen-activated protein kinase 7 (Homo sapiens, UniProt Q13164)
Sequence (Q13164 whole entry): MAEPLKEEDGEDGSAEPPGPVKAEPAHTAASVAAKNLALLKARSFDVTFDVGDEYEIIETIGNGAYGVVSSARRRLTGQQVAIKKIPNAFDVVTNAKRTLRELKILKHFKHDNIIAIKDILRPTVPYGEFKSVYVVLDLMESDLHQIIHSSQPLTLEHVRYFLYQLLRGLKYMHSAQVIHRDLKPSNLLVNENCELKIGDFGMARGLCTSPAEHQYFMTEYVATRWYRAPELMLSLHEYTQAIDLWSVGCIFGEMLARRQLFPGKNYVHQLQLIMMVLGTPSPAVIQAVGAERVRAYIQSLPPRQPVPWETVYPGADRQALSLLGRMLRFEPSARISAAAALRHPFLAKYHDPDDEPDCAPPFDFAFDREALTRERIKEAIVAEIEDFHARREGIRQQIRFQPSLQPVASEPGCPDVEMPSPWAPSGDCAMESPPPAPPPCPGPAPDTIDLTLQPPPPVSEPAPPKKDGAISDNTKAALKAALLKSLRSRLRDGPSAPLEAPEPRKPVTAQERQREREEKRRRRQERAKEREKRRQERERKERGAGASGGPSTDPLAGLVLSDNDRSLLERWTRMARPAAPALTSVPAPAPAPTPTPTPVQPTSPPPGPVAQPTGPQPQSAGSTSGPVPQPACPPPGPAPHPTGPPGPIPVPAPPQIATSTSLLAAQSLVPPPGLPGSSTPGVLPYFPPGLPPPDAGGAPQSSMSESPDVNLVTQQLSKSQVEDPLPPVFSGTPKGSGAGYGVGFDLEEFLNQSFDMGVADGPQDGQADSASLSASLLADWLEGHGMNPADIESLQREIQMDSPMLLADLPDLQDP

SMILES	Kd
CNC(=O)CN1CCC(Oc2cc3c(Nc4cccc(Cl)c4F)ncnc3cc2OC)CC1 [SAPITINIB]	> 30 µM (inactive)
CN1CCC(CNc2ccc3ncc(-c4cccc(OC(F)(F)F)c4)n3n2)CC1 [SGI-1776]	> 30 µM (inactive)
C[C@@H]1CN(Cc2ccc(F)cc2)[C@@H](C)CN1C(=O)c1cc2c(C(=O)C(=O)N(C)C)cn(C)c2cc1Cl [TALMAPIMOD]	> 30 µM (inactive)
CN1CCC(COc2cnc(-c3cccc(Cn4nc(-c5cccc(C#N)c5)ccc4=O)c3)nc2)CC1 [TEPOTINIB]	> 30 µM (inactive)

Target: T3, Serine/threonine-protein kinase LATS1 (Homo sapiens, UniProt O95835)
T3 sequence (O95835 whole entry): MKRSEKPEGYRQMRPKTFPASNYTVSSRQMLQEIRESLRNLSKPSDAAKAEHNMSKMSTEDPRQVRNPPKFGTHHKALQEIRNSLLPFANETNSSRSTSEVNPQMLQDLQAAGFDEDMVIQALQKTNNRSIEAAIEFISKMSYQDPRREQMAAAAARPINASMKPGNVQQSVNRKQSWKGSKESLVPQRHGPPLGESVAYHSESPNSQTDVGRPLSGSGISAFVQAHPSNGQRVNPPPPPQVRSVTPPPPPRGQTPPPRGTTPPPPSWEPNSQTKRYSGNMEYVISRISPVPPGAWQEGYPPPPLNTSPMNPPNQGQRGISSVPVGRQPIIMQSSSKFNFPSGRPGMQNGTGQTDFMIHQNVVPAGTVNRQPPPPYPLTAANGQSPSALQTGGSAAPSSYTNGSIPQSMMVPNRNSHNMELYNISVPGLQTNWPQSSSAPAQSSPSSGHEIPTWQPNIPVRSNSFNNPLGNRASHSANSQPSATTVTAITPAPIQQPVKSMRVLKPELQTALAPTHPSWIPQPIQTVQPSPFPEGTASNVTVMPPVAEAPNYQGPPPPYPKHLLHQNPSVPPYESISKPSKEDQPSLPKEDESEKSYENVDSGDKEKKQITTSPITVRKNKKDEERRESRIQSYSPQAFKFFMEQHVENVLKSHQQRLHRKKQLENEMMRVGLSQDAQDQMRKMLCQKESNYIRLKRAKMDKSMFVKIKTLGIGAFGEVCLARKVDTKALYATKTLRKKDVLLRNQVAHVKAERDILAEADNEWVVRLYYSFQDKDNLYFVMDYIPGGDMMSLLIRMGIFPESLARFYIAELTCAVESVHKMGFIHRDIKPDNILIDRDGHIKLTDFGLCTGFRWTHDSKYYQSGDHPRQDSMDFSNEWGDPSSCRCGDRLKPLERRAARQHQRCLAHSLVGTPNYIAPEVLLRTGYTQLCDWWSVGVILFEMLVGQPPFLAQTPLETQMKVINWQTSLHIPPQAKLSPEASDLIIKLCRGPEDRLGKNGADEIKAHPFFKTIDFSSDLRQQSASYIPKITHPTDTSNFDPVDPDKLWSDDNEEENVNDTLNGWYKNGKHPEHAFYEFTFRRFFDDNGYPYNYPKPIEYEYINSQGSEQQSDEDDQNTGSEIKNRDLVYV

SMILES	Kd
CNC(=O)CN1CCC(Oc2cc3c(Nc4cccc(Cl)c4F)ncnc3cc2OC)CC1 [SAPITINIB]	> 30 µM (inactive)
CN1CCC(CNc2ccc3ncc(-c4cccc(OC(F)(F)F)c4)n3n2)CC1 [SGI-1776]	> 30 µM (inactive)
C[C@@H]1CN(Cc2ccc(F)cc2)[C@@H](C)CN1C(=O)c1cc2c(C(=O)C(=O)N(C)C)cn(C)c2cc1Cl [TALMAPIMOD]	> 30 µM (inactive)
CN1CCC(COc2cnc(-c3cccc(Cn4nc(-c5cccc(C#N)c5)ccc4=O)c3)nc2)CC1 [TEPOTINIB]	> 30 µM (inactive)

Target: LIM domain kinase 2 (Homo sapiens, UniProt P53671)
Sequence (P53671 whole entry, the tested form may be a part): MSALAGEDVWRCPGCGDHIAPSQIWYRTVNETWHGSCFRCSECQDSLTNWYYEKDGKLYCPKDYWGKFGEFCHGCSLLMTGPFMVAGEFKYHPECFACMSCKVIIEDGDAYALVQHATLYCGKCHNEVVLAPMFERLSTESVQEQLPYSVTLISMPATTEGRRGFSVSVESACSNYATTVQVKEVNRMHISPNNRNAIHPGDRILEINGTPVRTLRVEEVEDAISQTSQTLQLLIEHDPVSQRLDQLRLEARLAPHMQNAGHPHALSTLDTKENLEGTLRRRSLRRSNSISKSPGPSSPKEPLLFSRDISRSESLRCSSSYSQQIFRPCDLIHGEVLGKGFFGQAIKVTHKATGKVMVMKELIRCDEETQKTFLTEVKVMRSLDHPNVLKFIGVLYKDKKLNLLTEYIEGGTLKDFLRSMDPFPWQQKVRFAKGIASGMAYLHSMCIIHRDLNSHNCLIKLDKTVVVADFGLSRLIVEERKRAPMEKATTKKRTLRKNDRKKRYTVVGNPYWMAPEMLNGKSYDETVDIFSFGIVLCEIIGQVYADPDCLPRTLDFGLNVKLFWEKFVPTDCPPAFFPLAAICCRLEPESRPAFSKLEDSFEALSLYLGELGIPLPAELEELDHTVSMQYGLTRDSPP

SMILES	Kd
CNC(=O)CN1CCC(Oc2cc3c(Nc4cccc(Cl)c4F)ncnc3cc2OC)CC1 [SAPITINIB]	> 30 µM (inactive)
CN1CCC(CNc2ccc3ncc(-c4cccc(OC(F)(F)F)c4)n3n2)CC1 [SGI-1776]	> 30 µM (inactive)
C[C@@H]1CN(Cc2ccc(F)cc2)[C@@H](C)CN1C(=O)c1cc2c(C(=O)C(=O)N(C)C)cn(C)c2cc1Cl [TALMAPIMOD]	> 30 µM (inactive)
CN1CCC(COc2cnc(-c3cccc(Cn4nc(-c5cccc(C#N)c5)ccc4=O)c3)nc2)CC1 [TEPOTINIB]	> 30 µM (inactive)
